{
  "source": "patent US7423020B2",
  "about": "“Treatment of mood disorders by administration of SMR1” (Institut Pasteur, priority 2001, dated 2008)",
  "key": {"NEP": {"target": "T1, NEP (Rattus norvegicus, UniProt P07861)", "T1 construct": "incubations of membrane and fresh tissue slice preparations from nervous tissues; from tissue; host or cells: rat spinal cord (dorsal zone), fresh slices or 100 000 x g membrane fraction", "T1 sequence (P07861 1-750)": "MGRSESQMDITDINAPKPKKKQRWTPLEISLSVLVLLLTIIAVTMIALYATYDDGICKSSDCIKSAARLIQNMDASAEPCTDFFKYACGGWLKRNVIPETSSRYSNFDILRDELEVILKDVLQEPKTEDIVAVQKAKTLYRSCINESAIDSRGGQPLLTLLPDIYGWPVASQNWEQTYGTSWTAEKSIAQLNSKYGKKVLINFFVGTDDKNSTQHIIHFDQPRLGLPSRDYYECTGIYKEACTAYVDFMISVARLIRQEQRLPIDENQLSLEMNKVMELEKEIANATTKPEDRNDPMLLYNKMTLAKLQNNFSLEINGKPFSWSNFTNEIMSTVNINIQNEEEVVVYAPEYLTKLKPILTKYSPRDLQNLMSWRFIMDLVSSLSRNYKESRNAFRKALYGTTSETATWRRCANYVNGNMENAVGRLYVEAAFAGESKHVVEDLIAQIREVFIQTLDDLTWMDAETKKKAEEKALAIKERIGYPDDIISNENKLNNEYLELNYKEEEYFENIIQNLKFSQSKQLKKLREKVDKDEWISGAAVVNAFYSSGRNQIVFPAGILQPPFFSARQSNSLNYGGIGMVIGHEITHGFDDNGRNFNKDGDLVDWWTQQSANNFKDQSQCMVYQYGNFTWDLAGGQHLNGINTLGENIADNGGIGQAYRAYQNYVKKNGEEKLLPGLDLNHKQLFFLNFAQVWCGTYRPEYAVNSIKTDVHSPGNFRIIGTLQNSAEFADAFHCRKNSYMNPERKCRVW", "assay": "3H-Substance P hydrolysis by rat spinal cord membrane preparations", "format": "biochemical", "procedure": "The organs dissected out and washed in ice-cold KRBG are homogenized at 4° C. in 10 volumes (vol./wt.) of 50 mM Tris/HCl buffered at pH 7.2, using a Teflon-glass homogenizer (3×5 sec.). A first centrifugation of 5 min. at 1000×g and 4° C. makes it possible to remove the tissular debris and the nuclei in the pellet. A second centrifugation of the supernatant at 100 000×g and 5° C. concentrates the membrane fraction into the pellet, which will be superficially washed three times with cold Tris/HCl buffer and resuspended in fresh buffer using a Kontes homogenizer, aliquoted and stored at -80° C. while waiting to be used as enzyme source, at least until three months. For the experiments of analysis of the NEP peptidase activity, an ex vivo model using incubations of membrane and fresh tissue slice preparations from nervous tissues that are known to be appropriate for exploring NEP peptidase activity: i.e. the dorsal zone of rat spinal cord, was first developed. The metabolism rate of the NEP-sensitive peptides was measured using the both NEP substrates involved in the signaling of the nociceptive response: the neuropeptides Met-enkephalin and Substance P. […] (NEN, 12.5-25 nM) were used. The objective was to measure the NEP-specific endoproteolysis of these substrates. […] The radioactivity of eluted and isolated compounds is determined by liquid scintillation spectrometry."}, "[1]": {"target": "T2, purified rabbit kidney NEP (Oryctolagus cuniculus, UniProt P08049)", "T2 construct": "using purified rabbit kidney NEP; from tissue; host or cells: rabbit kidney", "T2 sequence (P08049 1-750)": "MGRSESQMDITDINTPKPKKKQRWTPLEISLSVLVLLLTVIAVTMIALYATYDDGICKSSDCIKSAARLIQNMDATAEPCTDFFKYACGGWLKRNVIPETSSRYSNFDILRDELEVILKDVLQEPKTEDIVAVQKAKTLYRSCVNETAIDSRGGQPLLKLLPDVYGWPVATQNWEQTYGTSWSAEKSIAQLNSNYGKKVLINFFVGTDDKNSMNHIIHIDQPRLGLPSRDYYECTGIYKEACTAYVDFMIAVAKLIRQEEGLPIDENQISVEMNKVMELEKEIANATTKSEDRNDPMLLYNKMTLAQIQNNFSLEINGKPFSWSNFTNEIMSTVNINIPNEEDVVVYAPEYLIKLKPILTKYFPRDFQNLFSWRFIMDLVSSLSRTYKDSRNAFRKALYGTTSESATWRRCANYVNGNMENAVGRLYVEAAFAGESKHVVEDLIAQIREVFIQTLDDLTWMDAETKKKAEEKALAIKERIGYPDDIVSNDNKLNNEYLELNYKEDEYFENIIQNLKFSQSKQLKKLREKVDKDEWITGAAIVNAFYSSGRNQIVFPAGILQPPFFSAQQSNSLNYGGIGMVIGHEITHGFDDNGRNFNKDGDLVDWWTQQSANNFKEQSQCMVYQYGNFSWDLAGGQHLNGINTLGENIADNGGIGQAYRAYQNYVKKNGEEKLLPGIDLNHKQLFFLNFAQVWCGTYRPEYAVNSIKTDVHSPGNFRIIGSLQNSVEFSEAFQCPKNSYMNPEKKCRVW", "assay": "Direct interaction with purified rabbit kidney NEP in vitro", "format": "binding"}, "[2]": {"assay": "Tissue uptake of SMR1-Pentapeptide in vivo", "parameters": "species or system rat"}},
  "note": "Where “and” joins values, the source holds several entries; their conditions need not be identical. Equal entries are not always repeated. Entries after “also recorded” stand apart in the source; their conditions may differ. Where a SMILES comes first, the peptide text is derived from it.",
  "data": [
    {"molecule": "N=C(N)NCCC[C@H](NC(=O)[C@@H]1CCCN1C(=O)[C@H](CC(N)=O)NC(=O)[C@H](Cc1c[nH]cn1)NC(=O)[C@@H](N)CCC(N)=O)C(=O)O", "note": "[SMR1-QHNPR, QHNPR] (H-QHNPR-OH; N-terminus and C-terminus assumed)", "values": [
      {"measurement": "IC50", "setting": "NEP; 3H-Substance P 12.5 nM, 10 min at 25° C., read-out: IC50 (concentration reducing by half the degradation of 3H-substance P) (converted)", "result": "~100 nM and 100 nM"},
      {"measurement": "protection of Substance P / NEP inhibitory potency compared with reference inhibitors", "setting": "NEP; FIG. 3-B", "result": "equivalent to that obtained with Phosphoramidon; also recorded: equivalent to that of two well-known NEP-specific inhibitors, Thiorphan and Phosphoramidon"},
      {"measurement": "direct interaction with NEP", "setting": "[1]", "result": "direct interaction of rat kidney NEP and SMR1-Pentapeptide was demonstrated"},
      {"measurement": "stability of tissue uptake", "setting": "[2]", "result": "pharmacokinetically and biochemically stable in vivo"}
    ]}
  ]
}
